Values of other authors in PubChem BioAssay AID1259409 (Chemical Carcinogenesis Research Information System (CCRIS), 2018).

Test system: rodent chemically induced tumor inhibition, incidence and multiplicity
Assay: CCRIS tumor inhibitor studies

CC1=C(/C=C/C(C)=C/C=C/C(C)=C/C=C/C=C(C)/C=C/C=C(C)/C=C/C2=C(C)CCCC2(C)C)C(C)(C)CCC1
tumour outcome (control, treated, inhibition, significance) (Carcinogen: 1,2-DIMETHYLHYDRAZINE, 540-73-8, Dose [Inhibitor]: 0, 0.005% IN DIET FOR 14 WK BEGINNING 3 D PRIOR TO CARCINOGEN TREATMENT (STUDY DURATION: 26 WK), Route [Inhibitor]: ORAL, Species: RAT, Strain/Sex: SPRAGUE-DAWLEY/MALE, Target Tissue: Type of Lesion: INTESTINE: CARCINOMA, Dose [Carcinogen]: 20 MG/KG BW 1/WK FOR 12 WK, Promoter: NONE USED): 23/28 (82%), 11/20 (55%), 33%, p<0.05
tumour outcome (control, treated, inhibition, significance) (Carcinogen: 4-(METHYLNITROSAMINO)-1-(3-PYRIDYL)-1-BUTANONE [64091-50-5], Dose [Inhibitor]: 16 MG/KG SC 2X/WK FOR 16 WK BEGINNING 1 WK PRIOR TO FIRST CARCINOGEN DOSE (STUDY DURATION: 16 WK), Route [Inhibitor]: SUBCUTANEOUS, Species: MOUSE, Strain/Sex: A/J/FEMALE, Target Tissue: Type of Lesion: LUNG: ADENOMA OR ADENOCARCINOMA, Dose [Carcinogen]: 10 UMOL ONCE 1 WK POST FIRST INHIBITOR DOSE (STUDY DURATION: 16 WK), Promoter: NONE): 100%, 100%, 0%, not significant
tumour outcome (control, treated, inhibition, significance) (Carcinogen: 4-(METHYLNITROSAMINO)-1-(3-PYRIDYL)-1-BUTANONE [64091-50-5], Dose [Inhibitor]: 32 MG/KG SC 2X/WK FOR 17 WK BEGINNING 1 WK PRIOR TO FIRST CARCINOGEN DOSE (STUDY DURATION: 17 WK), Route [Inhibitor]: SUBCUTANEOUS, Species: MOUSE, Strain/Sex: A/J/FEMALE, Target Tissue: Type of Lesion: LUNG: ADENOMA, Dose [Carcinogen]: 10 UMOL ONCE 1 WK POST FIRST INHIBITOR DOSE (STUDY DURATION: 17 WK), Promoter: NONE): 100%, 100%, 0%, not significant
tumour outcome (control, treated, inhibition, significance) (Carcinogen: 4-(METHYLNITROSAMINO)-1-(3-PYRIDYL)-1-BUTANONE [64091-50-5], Dose [Inhibitor]: 32 MG/KG SC 2X/WK FOR 53 WK BEGINNING 1 WK PRIOR TO FIRST CARCINOGEN DOSE (STUDY DURATION: 53 WK), Route [Inhibitor]: SUBCUTANEOUS, Species: MOUSE, Strain/Sex: A/J/FEMALE, Target Tissue: Type of Lesion: LUNG: ADENOMA OR ADENOCARCINOMA, Dose [Carcinogen]: 10 UMOL ONCE 1 WK POST FIRST INHIBITOR DOSE (STUDY DURATION: 53 WK), Promoter: NONE): 100%, 100%, 0%, not significant
tumour outcome (control, treated, inhibition, significance) (Carcinogen: 4-NITROQUINOLINE-1-OXIDE, 56-57-5, Dose [Inhibitor]: 0, 0.05% IN DRINKING WATER AD LIBITUM (STUDY DURATION: 30 WK), Route [Inhibitor]: ORAL, Species: MOUSE, Strain/Sex: DDY/MALE, Target Tissue: Type of Lesion: LUNG: TUMOR, Dose [Carcinogen]: 10 MG/KG BW IN OLIVE OIL/CHOLESTEROL (20:1) ONCE, Promoter: GLYCEROL, 56-81-5): 94%, 93%, 1%, not significant
tumour outcome (control, treated, inhibition, significance) (Carcinogen: 4-NITROQUINOLINE-1-OXIDE, 56-57-5, Dose [Inhibitor]: 0, 0.05% IN DRINKING WATER BEGINNING 5 WK POST CARCINOGEN TREATMENT AND CONTINUING FOR 25 WK (STUDY DURATION: 30 WK), Route [Inhibitor]: ORAL, Species: MOUSE, Strain/Sex: DDY/MALE, Target Tissue: Type of Lesion: LUNG: TUMORS, Dose [Carcinogen]: 10 MG/KG BW IN OLIVE OIL AND CHOLESTEROL (20:1) ONCE, Promoter: NONE USED): 94%, 93%, 1%, not significant
tumour outcome (control, treated, inhibition, significance) (Carcinogen: 4-NITROQUINOLINE-1-OXIDE, 56-57-5, Dose [Inhibitor]: 0, 500 PPM IN DIET FOR 10 WK BEGINNING 1 WK PRIOR TO CARCINOGEN TREATMENT (STUDY DURATION: 32 WK), Route [Inhibitor]: ORAL, Species: RAT, Strain/Sex: F344/MALE, Target Tissue: Type of Lesion: TONGUE: CARCINOMA, Dose [Carcinogen]: 20 PPM IN DRINKING WATER FOR 8 WK, Promoter: NONE USED): 13/24 (54%), 3/17 (18%), 67%, p<0.05
tumour outcome (control, treated, inhibition, significance) (Carcinogen: 4-NITROQUINOLINE-1-OXIDE, 56-57-5, Dose [Inhibitor]: 0, 500 PPM IN DIET FOR 10 WK BEGINNING 1 WK PRIOR TO CARCINOGEN TREATMENT (STUDY DURATION: 32 WK), Route [Inhibitor]: ORAL, Species: RAT, Strain/Sex: F344/MALE, Target Tissue: Type of Lesion: TONGUE: PAPILLOMA, Dose [Carcinogen]: 20 PPM IN DRINKING WATER FOR 8 WK, Promoter: NONE USED): 4/24 (17%), 2/17 (12%), 29%, not significant
tumour outcome (control, treated, inhibition, significance) (Carcinogen: 4-NITROQUINOLINE-1-OXIDE, 56-57-5, Dose [Inhibitor]: 0, 500 PPM IN DIET FOR 22 WK BEGINNING 1 WK POST CARCINOGEN TREATMENT (STUDY DURATION: 32 WK), Route [Inhibitor]: ORAL, Species: RAT, Strain/Sex: F344/MALE, Target Tissue: Type of Lesion: TONGUE: CARCINOMA, Dose [Carcinogen]: 20 PPM IN DRINKING WATER FOR 8 WK, Promoter: NONE USED): 13/24 (54%), 4/17 (24%), 56%, p<0.05
tumour outcome (control, treated, inhibition, significance) (Carcinogen: 4-NITROQUINOLINE-1-OXIDE, 56-57-5, Dose [Inhibitor]: 0, 500 PPM IN DIET FOR 22 WK BEGINNING 1 WK POST CARCINOGEN TREATMENT (STUDY DURATION: 32 WK), Route [Inhibitor]: ORAL, Species: RAT, Strain/Sex: F344/MALE, Target Tissue: Type of Lesion: TONGUE: PAPILLOMA, Dose [Carcinogen]: 20 PPM IN DRINKING WATER FOR 8 WK, Promoter: NONE USED): 4/24 (17%), 2/17 (12%), 29%, not significant
tumour outcome (control, treated, inhibition, significance) (Carcinogen: 7,12-DIMETHYLBENZ[A]ANTHRACENE, 57-97-6, Dose [Inhibitor]: 0, 0.05% IN DRINKING WATER AD LIBITUM FOR 30 WK BEGINNING 1 WK POST CARCINOGEN DOSE (STUDY DURATION: 31 WK), Route [Inhibitor]: ORAL, Species: MOUSE, Strain/Sex: ICR/FEMALE, Target Tissue: Type of Lesion: SKIN: TUMOR, Dose [Carcinogen]: 100 UG ONCE, Promoter: 12-O-TETRADECANOYLPHORBOL-13-ACETATE, 16561-29-8): 13/16 (81%), 8/16 (50%), 38%, not significant
tumour outcome (control, treated, inhibition, significance) (Carcinogen: 7,12-DIMETHYLBENZ[A]ANTHRACENE, 57-97-6, Dose [Inhibitor]: 0, 200 NMOL IN 200 µL ACETONE 2/WK BEGINNING 1 WK POST CARCINOGEN DOSE APPLIED SIMULTANEOUSLY WITH PROMOTER FOR 20 WK (S, Route [Inhibitor]: DERMAL, Species: MOUSE, Strain/Sex: ICR/?, Target Tissue: Type of Lesion: SKIN: PAPILLOMA, Dose [Carcinogen]: 100 UG ONCE, Promoter: 12-O-TETRADECANOYLPHORBOL-13-ACETATE, 16561-29-8): 69%, 31%, 55%, not calculated
tumour outcome (control, treated, inhibition, significance) (Carcinogen: 7,12-DIMETHYLBENZ[A]ANTHRACENE, 57-97-6, Dose [Inhibitor]: 0, 200 NMOL IN 200 µL ACETONE 2/WK FOR 40 WK APPLIED SIMULTANEOUSLY WITH PROMOTER BEGINNING 1 WK POST CARCINOGEN DOSE (S, Route [Inhibitor]: DERMAL, Species: MOUSE, Strain/Sex: ICR/FEMALE, Target Tissue: Type of Lesion: SKIN: TUMOR, Dose [Carcinogen]: 100 UG ONCE, Promoter: 12-O-TETRADECANOYLPHORBOL-13-ACETATE, 16561-29-8): 10/15 (67%), 8/15 (53%), 21%, not significant
tumour outcome (control, treated, inhibition, significance) (Carcinogen: 7,12-DIMETHYLBENZ[A]ANTHRACENE, 57-97-6, Dose [Inhibitor]: 0, 200 NMOL PALM CAROTENE FOR 22 WK BEGINNING 1 WK POST CARCINOGEN DOSE (STUDY DURATION: 40 WK), Route [Inhibitor]: DERMAL, Species: MOUSE, Strain/Sex: ICR/FEMALE, Target Tissue: Type of Lesion: SKIN: TUMOR, Dose [Carcinogen]: 100 UG ONCE, Promoter: GLYCOCHOLIC ACID, 475-31-0, MEZEREIN, 34807-41-5, Promoter: GLYCOCHOLIC ACID, 475-31-0, MEZEREIN, 34807-41-5): 26%, 0%, 100%, not calculated
tumour outcome (control, treated, inhibition, significance) (Carcinogen: 7,12-DIMETHYLBENZ[A]ANTHRACENE, 57-97-6, Dose [Inhibitor]: 0, 250 MG SUSPENDED IN LIQUID PARAFFIN APPLIED TO EACH CHEEK POUCH 2/WK BEGINNING 15 D POST LAST CARCINOGEN DOSE AND CON, Route [Inhibitor]: DERMAL, Species: HAMSTER, Strain/Sex: SYRIAN/MALE, Target Tissue: Type of Lesion: CHEEK POUCH: TUMOR, Dose [Carcinogen]: 0.125 MG (0.25% LIQUID PARAFFIN SOLUTION) APPLIED TO EACH CHEEK POUCH FOR 1 MO, Promoter: NONE USED): 10/15 (67%), 0/20 (0%), 100%, not calculated
tumour outcome (control, treated, inhibition, significance) (Carcinogen: 7,12-DIMETHYLBENZ[A]ANTHRACENE, 57-97-6, Dose [Inhibitor]: 0, 250 MG SUSPENDED IN LIQUID PARAFFIN APPLIED TO EACH CHEEK POUCH 2/WK BEGINNING 15 D POST LAST CARCINOGEN DOSE AND CON, Route [Inhibitor]: DERMAL, Species: HAMSTER, Strain/Sex: SYRIAN/MALE, Target Tissue: Type of Lesion: STOMACH: TUMOR, Dose [Carcinogen]: 0.125 MG (0.25% LIQUID PARAFFIN IN SOLUTION) APPLIED TO EACH CHEEK POUCH 2/WK FOR 1 MO, Promoter: NONE USED): 15/15 (100%), 0/20 (0%), 100%, not calculated
tumour outcome (control, treated, inhibition, significance) (Carcinogen: 7,12-DIMETHYLBENZ[A]ANTHRACENE, 57-97-6, Dose [Inhibitor]: 0, 290 IU/KG IN 100 µL PEANUT OIL 5 D/WK BEGINNING 1 WK POST CARCINOGEN DOSE AND CONTINUING FOR DURATION OF STUDY (STUDY, Route [Inhibitor]: GAVAGE, Species: MOUSE, Strain/Sex: HRA/SKH/FEMALE, Target Tissue: Type of Lesion: SKIN: CARCINOMA, Dose [Carcinogen]: 10 NMOL IN 50 µL ACETONE ONCE): 7/25 (28%), 7/38 (18%), 36%, not calculated
outcome (Carcinogen: 7,12-DIMETHYLBENZ[A]ANTHRACENE, 57-97-6, Dose [Inhibitor]: 0, 290 IU/KG IN 100 µL PEANUT OIL 5 D/WK BEGINNING 1 WK POST CARCINOGEN DOSE AND CONTINUING FOR DURATION OF STUDY (STUDY, Route [Inhibitor]: GAVAGE, Species: MOUSE, Strain/Sex: HRA/SKH/FEMALE, Target Tissue: Type of Lesion: SKIN: PAPILLOMA, Dose [Carcinogen]: 10 NMOL IN 50 µL ACETONE ONCE): 97%, 77%, 21%, not calculated at 20 wk; 68%, 50%, 27%, not calculated at 40 wk
